Source: ChEMBL document CHEMBL5154728, “Design and synthesis of novel quinazolinone derivatives as anti-HBV agents with TLR8 agonist effect” (Eur J Med Chem, 2022)

Tests used:
[1] = Antiviral activity against Hepatitis B virus infected in human HepG2 2.2.15 cells assessed as inhibition of DNA replication; type: functional, cell-based
[2] = Selectivity index, ratio of CC50 for human HepG2.2.2.15 cells to IC50 for Hepatitis B virus infected in human HepG2.2.2.15 cells; type: toxicity, cell-based; settings: read-out: Selectivity Index
[3] = Cytotoxicity against human HepG2 2.2.15 cells infected with Hepatitis B virus assessed as reduction in cell growth by CCK8 assay; type: toxicity, cell-based
[4] = Antiviral activity against lamivudine/entecavir- resistant Hepatitis B virus infected in human HepG2 A64 cells assessed as inhibition of DNA replication; type: functional, cell-based
[5] = biological target: T1, Toll-like receptor 8 (Homo sapiens) (UniProt Q9NR97); experiment: Agonist activity at human TLR8 expressed in HEK293T cells co-transfected with NFKappaB luciferase and renilla plasmids assessed as NF-kappaB activation measured after 48 hrs by dual-luciferase reporter gene assay; type: cell-based; settings: filed as agonist, DDE = dose-dependent effect
T1 sequence (whole entry): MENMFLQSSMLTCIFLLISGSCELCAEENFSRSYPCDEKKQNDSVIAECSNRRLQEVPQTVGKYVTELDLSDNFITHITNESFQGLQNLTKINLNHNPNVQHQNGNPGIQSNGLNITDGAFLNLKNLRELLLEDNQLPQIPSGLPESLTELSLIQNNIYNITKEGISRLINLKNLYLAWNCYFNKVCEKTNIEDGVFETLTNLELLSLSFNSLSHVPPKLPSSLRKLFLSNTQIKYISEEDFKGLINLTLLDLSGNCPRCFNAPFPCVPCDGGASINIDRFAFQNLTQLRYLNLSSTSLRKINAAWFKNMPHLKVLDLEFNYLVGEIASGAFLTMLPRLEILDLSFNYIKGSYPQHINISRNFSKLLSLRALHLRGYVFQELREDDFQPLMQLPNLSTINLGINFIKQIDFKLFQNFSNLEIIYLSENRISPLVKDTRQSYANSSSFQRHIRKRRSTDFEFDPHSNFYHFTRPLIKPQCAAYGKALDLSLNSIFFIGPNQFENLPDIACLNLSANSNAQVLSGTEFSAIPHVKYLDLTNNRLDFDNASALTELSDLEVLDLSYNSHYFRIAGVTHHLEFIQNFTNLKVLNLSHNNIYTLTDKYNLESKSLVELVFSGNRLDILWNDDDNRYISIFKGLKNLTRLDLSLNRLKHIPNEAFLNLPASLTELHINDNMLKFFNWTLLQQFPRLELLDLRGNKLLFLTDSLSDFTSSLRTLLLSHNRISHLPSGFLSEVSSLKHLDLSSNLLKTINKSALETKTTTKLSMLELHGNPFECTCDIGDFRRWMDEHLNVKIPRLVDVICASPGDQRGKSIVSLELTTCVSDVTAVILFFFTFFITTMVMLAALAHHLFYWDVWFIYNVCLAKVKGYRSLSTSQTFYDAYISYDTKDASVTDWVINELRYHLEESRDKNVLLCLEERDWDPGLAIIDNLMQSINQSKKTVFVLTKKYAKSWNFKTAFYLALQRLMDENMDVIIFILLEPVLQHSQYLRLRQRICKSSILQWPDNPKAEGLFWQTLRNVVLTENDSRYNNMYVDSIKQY

[6] = Selectivity index, ratio of CC50 for human HepG2.2.2.15 cells to IC50 for lamivudine/entecavir-resistant Hepatitis B virus infected in human HepG2 A64 cells; type: toxicity, cell-based; settings: HepG2.2.2.15 cells (CC50), read-out: Selectivity Index
Hepatitis B virus [7] = experiment: Antiviral activity against lamivudine/entecavir-resistant Hepatitis B virus infected in human HepG2 A64 cells assessed as inhibition of DNA replication at 1 uM incubated for 72 hrs by RT PCR analysis; type: functional, organism-based; settings: for IC50: HepG2.A64, 72 h; for inhibition at 1 µM: HepG2.A64, dose 1 µM, time 72 hrs
Hepatitis B virus [8] = experiment: Antiviral activity against wild type Hepatitis B virus infected in human HepG2.2.2.15 cells assessed as inhibition of DNA replication at 1 uM incubated for 72 hrs by RT PCR analysis; type: functional

SMILES	IC50 [1] [nM]	selectivity ratio [2]	CC50 [3] [nM]	also measured
O=c1c2cc(OCCCN3CCC(O)CC3)ccc2nc(SCc2ccccc2)n1Cc1ccco1	700	> 14.3	> 10000	
CN1CCN(CCCOc2ccc3nc(SCc4cccc(F)c4)n(Cc4ccco4)c(=O)c3c2)CC1	990	> 4.26	4220	
Nc1nccc(OCCCOc2ccc3nc(SCc4ccccc4)n(Cc4cccs4)c(=O)c3c2)n1			> 10000	
O=c1c2cc(OCCCN3CCC(O)CC3)ccc2nc(SCc2ccc(F)cc2)n1Cc1ccco1			> 10000	
Nc1nccc(OCCOc2ccc3nc(SCc4ccccc4)n(Cc4ccco4)c(=O)c3c2)n1			1250	
Nc1nccc(OCCCCOc2ccc3nc(SCc4ccccc4)n(Cc4ccco4)c(=O)c3c2)n1			> 10000	
COc1ccccc1CSc1nc2ccc(OCCCN3CCN(C)CC3)cc2c(=O)n1Cc1ccco1			> 10000	
Nc1nccc(OCCCOc2ccc3nc(SCc4cccc(F)c4)n(Cc4ccccc4)c(=O)c3c2)n1			> 10000	
Nc1nccc(OCCCOc2ccc3nc(SCc4ccccc4)n(CC4CCCCC4)c(=O)c3c2)n1			> 10000	
Nc1ccn([C@@H]2CS[C@H](CO)O2)c(=O)n1 [LAMIVUDINE]	< 100	> 1000	> 100000	IC50 [4]: > 100000 nM
CCN(CC)CCOc1ccc2nc(SCc3ccccc3)n(Cc3cccs3)c(=O)c2c1	830	22.9	> 10000	
COc1ccccc1CSc1nc2ccc(OCCCOc3ccnc(N)n3)cc2c(=O)n1Cc1ccco1	150	> 66.7	> 10000	Activity [5]: Dde; IC50 [4]: 100 nM; selectivity ratio [6]: > 100; IC50 (Hepatitis B virus [7]): 100 nM; inhibition at 1 µM (Hepatitis B virus [7]): 77.3%; inhibition at 1 µM (Hepatitis B virus [8]): 80.9%
O=c1c2cc(OCCCN3CCC(O)CC3)ccc2nc(SCc2cccc(F)c2)n1Cc1ccco1	870	> 2.17	1830	
Nc1nccc(OCCCOc2ccc3nc(SCc4ccccc4)n(Cc4ccccc4)c(=O)c3c2)n1			> 10000	
Nc1nccc(OCCCOc2ccc3nc(SCc4ccc(F)cc4)n(Cc4ccccc4)c(=O)c3c2)n1			> 10000	
COc1ccccc1CSc1nc2ccc(OCCCN3CCC(O)CC3)cc2c(=O)n1Cc1ccco1			> 10000	
CN1CCN(CCCOc2ccc3nc(SCc4ccccc4)n(Cc4ccco4)c(=O)c3c2)CC1	630	> 15.9	> 10000	
CN1CCN(CCCOc2ccc3nc(SCc4ccc(F)cc4)n(Cc4ccco4)c(=O)c3c2)CC1			2900	
Nc1nccc(OCCCOc2ccc3nc(SCc4ccccc4)n(Cc4ccco4)c(=O)c3c2)n1	310	> 32.2	> 10000	IC50 [4]: 210 nM; selectivity ratio [6]: > 41.7; IC50 (Hepatitis B virus [7]): 240 nM; inhibition at 1 µM (Hepatitis B virus [7]): 75.3%; inhibition at 1 µM (Hepatitis B virus [8]): 79.3%
